Assay results from patent US4920129A, “Anti-ulcerative imidazopyridine compounds” (Fujisawa Pharmaceutical Company, Ltd., priority 1987, dated 1990).

Experiments:
[1] = test system: gastrin-stimulated acid secretion; experiment: Effect on gastrin-stimulated acid secretion in Heidenhain pouch dogs; format: in vivo; settings: 3.2 mg/kg, oral, tetragastrin 10 μg/kg/hr infusion, gastric juice collected 3 hr after drug
Protocol: EFFECT ON GASTRIN-STIMULATED ACID SECRETION IN HEIDENHAIN POUCH DOGS
Dogs equipped with Heidenhain pouches were placed on tables and restrained minimally in pavlov slings. Gastrin(tetragastrin) in 0.9% saline was continuously infused through the cephalic vein at a dose of 10 μg/kg/hr over a 5- to 6-hr period in a volume of 0.1 ml/kg/min. After acid secretion had reached a plateau (usually within 2 hr), drug was given orally in a volume of 1 ml/kg. Gastric juice was collected at 15 min intervals for 1 hr before and for 3 hr after drug administration. The volume of each sample was determined, and an aliquot was titrated to pH 7.0 with 0.1M NaOH. Acid output was expressed as μEq H^+ /15 min. The effect of drug was described as percent drug-induced change in acid secretion.

stress ulcer = experiment: Inhibition on stress ulcer (water-bath immobilization); format: in vivo, Sprague-Dawley rats; settings: 32 mg/kg, oral, just before immobilization; 7 hours; rats
Protocol: INHIBITION ON STRESS ULCER
Five Sprague-Dawley rats weighing about 200 g were used per group. Each animal was immobilized in a small cage and put in a water bath allowing to respire. The temperature of the water bath kept at 22° C. The test compound was administered orally just before the immobilization. Seven hours later, the animals were sacrificed and their stomachs were removed. The stomach was then fixed with 2% formalin. The area of ulcers was measured for each animal. The mean area (mm^2) in the medicated animals was compared with that in the control animals.

C#CCc1c(C)nc2c(NCc3c(C)cccc3NC(=O)OC)cccn12 [(1), 8-(2-Methyl-6-methoxycarbonylaminobenzylamino)-3-(2-propynyl)-2-methylimidazo[1,2-a]pyridine]
Maximum inhibition % (acid secretion) [1]: 100% | Inhibition % (area of ulcers) (stress ulcer): 100%
